Measurements reported in patent US20260325504A1, “Genetically Engineered Human Pituitary Corticotroph Tumor Organoids Exhibit Divergent Responses to Selective Glucocorticoid Receptor Modulators” (Corcept Therapeutics Incorporated, priority 2022, published 2026).
“Also recorded” adds a separate entry of the source.

Assays:
Type in all cases: cell-based, human
ACTH = assay: Spectral flow cytometry, ACTH positive cells, hPITOs
Excerpt: (§1) 1.3 Generation and Culture of Human PitNET Tissue Organoids (hPITOs)
(§2) Patients undergoing planned transsphenoidal surgery for PitNETs were identified in the outpatient neuroendocrinology and neurosurgery clinics and collected by the St. Joseph's Hospital and Barrow Neurological Institute Biobank under the collection protocol PHXA-05TS038, and outcomes data protocol PHXA-0004-72-29 with approval of the Institutional Review Board (IRB) and patient consent. De-identified samples were shipped in collection and transport media (Table 3) to the Zavros laboratory (University of Arizona) for processing within 24 hours of collection. Resected PitNET tissues were washed with Dulbeccos Phosphate Buffered Saline (DPBS) supplemented with 1× Penicillin/Streptomycin, 1× Kanamycin and 1× Amphotericin/Gentamycin, minced into smaller pieces, and incubated with digestion buffer (Dulbecco's Modified Eagle Medium/Nutrient Mixture F-12 (DMEM/F12) supplemented with 0.4% Collagenase 2, 0.1% Hyaluronic Acid, 0.03% Trypsin). The tissue was incubated with Accutase (Thermo Fisher Scientific) for a further 5 minutes, and the cells were pelleted and washed with DPBS supplemented with antibiotics. Dissociated cells were then seeded as Matrigel™ domes in culture dishes and overlaid with growth media (Table 4). Media was replaced every 3 days and organoids were harvested for downstream experiments or passaged after 15 days of culture (FIG. 1B).
(§3) Sonic Hedgehog (SHH) was withdrawn from the organoid growth media 16 hours prior to treatment. […] The IC50 values used for each hPITO line for each drug were determined based on dose responses (FIG. 12). […]

SSTR2 [1] = assay: Spectral flow cytometry, SSTR2 positive cells, iPSCUSP48MV organoids; conditions: 48 h, FIGS. 8A, E
Procedure: Sonic Hedgehog (SHH) was withdrawn from the organoid growth media 16 hours prior to treatment. The experimental treatment groups included: vehicle (Veh), mifepristone (500 nM, Selleckchem S2606), GANT61 (5 μM, Stemcell Technologies 73692), ketoconazole (Keto, 10 μM, Selleckchem S1353), pasireotide (Pas, 100 nM, Target Mol TP2207-SB001), octreotide (Oct, 100 nM, Selleckchem P1017), mifepristone plus GANT61, mifepristone plus Keto, mifepristone plus Pas, relacorilant (500 nM, Corcept Therapeutics CORT125134), relacorilant plus Pas, relacorilant plus Oct, or dexamethasone (Dexa, 100 nM, SIGMA S4902). In the combination treatments, cultures were pretreated with the GANT61, Keto, Pas or Oct for 2 hours prior to treatment with mifepristone or Rela. PitNET tissue derived organoids hPITO36, hPITO37, hPITO38, hPITO39, and hPITO40 were treated with the following experimental conditions: Vehicle (1), pasireotide (2), relacorilant (3), relacorilant & pasireotide (4), mifepristone (5), mifepristone & pasireotide (6). The IC50 values used for each hPITO line for each drug were determined based on dose responses (FIG. 12). All organoid cultures were treated for 48 hours prior to analysis.
The multicolor flow cytometry antibody panel was designed using the Cytek® Full Spectrum Viewer online tool to calculate the similarity index. Organoids were harvested in cold Serum-Free Defined Medium media and incubated with Zombie (BioLegend 423107, 1:100) for 15 minutes in the dark at room temperature, followed by incubation with fluorochrome-conjugated/unconjugated primary surface or cytoplasmic antibodies (Table 6) at 4° C. for 30 minutes. Cells were then washed with Cell Staining Buffer (BioLegend 420-201) and incubated at 4° C. for 30 minutes with secondary antibodies (Table 6). Cells were fixed using Cytofix/Cytoperm™ Fixation/Permeabilization Solution (BD Biosciences 554714) and washed with Fixation/Permeabilization wash buffer according to the recommended protocol. […] Data was acquired using the Cytek® Aurora, analyzed using Cytobank Premium software (Beckman Coulter).

SSTR2 [2] = assay: Spectral flow cytometry, SSTR2 positive cells, hPITOs; conditions: hPITO, 48 h, FIGS. 9E, F
Excerpt: as §1, §2, §3

SMILES	sensitization of organoids to pasireotide (ACTH; CD PitNET tissue derived organoids)	percentage of SSTR2 positive cells (SSTR2 [1])	percentage of SSTR2 positive cells (SSTR2 [2])	number of ACTH expressing cells / ACTH (ACTH; hPITO, 48 h, FIGS. 9I, J)	magnitude of SSTR2 induction, mifepristone vs relacorilant (SSTR2 [1])	magnitude of SSTR2 induction, mifepristone vs relacorilant (SSTR2 [2])
Cn1cc(S(=O)(=O)N2CCC3=Cc4c(cnn4-c4ccc(F)cc4)C[C@]3(C(=O)c3cc(C(F)(F)F)ccn3)C2)cn1 [relacorilant, (R)-(1-(4-fluorophenyl)-6-((1-methyl-1H-pyrazol-4-yl)sulfonyl)-4,4a,5,6,7,8-hexahydro-1H-pyrazolo[3,4-g]isoquinolin-4a-yl) (4-(trifluoromethyl)pyridin-2-yl) methanone]	sensitizes CD PitNET tissue derived organoids to pasireotide; also recorded: sensitized organoid tumor cells to suppression of ACTH by pasireotide	significant increase	significant increase	–	–	–
CC#C[C@]1(O)CC[C@H]2[C@@H]3CCC4=CC(=O)CCC4=C3[C@@H](c3ccc(N(C)C)cc3)C[C@@]21C [mifepristone, 11β-(4-dimethylaminophenyl)-17ß-hydroxy-17α-(1-propynyl)-estra-4,9-dien-3-one]	–	significant increase	significant increase	significantly increased the number of ACTH expressing cells	significantly greater than that of relacorilant	significantly greater than that of relacorilant
